Assay results: patent publication US9988430B2, “Stable GLP-1 based GLP-1/glucagon receptor co-agonists” (Novo Nordisk A/S, priority 2014, dated 2018)
*1 amine or outer side, *2 acyl side, *3 side chain or, on linkers, in order; H or OH if unused. Where a SMILES comes first, the peptide text is derived from it. Bridges are numbered along the chain shown (N, C = ends). Roman numbers before positions name the chains, in order. Side-chain parts run from the residue outwards. [ ]: non-standard residue; d: D form. The star is where a group is joined. C18 diacid = O=C(O)CCCCCCCCCCCCCCCCC(=O)*; γGlu = O=C(O)[C@H](CCC(=O)[*:2])N[*:1]; Desaminohistidyl = O=C(CCc1c[nH]cn1)*; Ac4c = NC1(C(=O)O)CCC1; AEEA = NCCOCCOCC(=O)O; Aib = CC(C)(N)C(=O)O

Biological target: T1, human GLP-1 receptor (Homo sapiens, UniProt P43220)
T1 construct: expressed in transfected cells; host or cells: membranes of BHK cells, parent line BHKTS13, clone FCW467-12A
T1 sequence (P43220 24-463): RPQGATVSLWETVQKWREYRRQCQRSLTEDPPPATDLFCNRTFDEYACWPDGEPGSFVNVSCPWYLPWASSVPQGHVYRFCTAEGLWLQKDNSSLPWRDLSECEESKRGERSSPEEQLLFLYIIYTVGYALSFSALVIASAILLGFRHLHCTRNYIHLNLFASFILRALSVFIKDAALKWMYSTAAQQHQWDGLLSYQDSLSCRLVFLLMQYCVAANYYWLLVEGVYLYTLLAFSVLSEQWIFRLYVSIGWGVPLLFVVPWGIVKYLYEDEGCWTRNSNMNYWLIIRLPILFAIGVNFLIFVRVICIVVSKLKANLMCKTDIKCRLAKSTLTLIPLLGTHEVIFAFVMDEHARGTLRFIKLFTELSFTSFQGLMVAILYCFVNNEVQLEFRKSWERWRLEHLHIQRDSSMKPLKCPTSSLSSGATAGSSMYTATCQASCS
Assay: Assay (II)(a): GLP-1 receptor binding, [125I]GLP-1 displacement, SPA on BHK membranes
Conditions: displacement of [125I]GLP-1, membranes with human GLP-1 receptor; read-out: IC50 GLP-1R
Summary of the method: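 Membranes from BHK cells expressing human GLP-1 receptor with WGA SPA beads, [125I]GLP-1(7-36)NH2 (480 pM added solution) and compound in HEPES pH 7.4 buffer with EGTA, MgCl2, Tween 20. Incubated 2 h at 30° C; SPA counts fitted by non-linear regression to IC50 in nM.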

Structure (SMILES) | IC50 [nM]
CC[C@H](C)[C@H](NC(=O)[C@H](Cc1ccccc1)NC(=O)[C@H](CCC(=O)O)NC(=O)[C@H](CCCNC(=N)N)NC(=O)[C@H](C)NC(=O)[C@H](C)NC(=O)[C@H](CCC(N)=O)NC(=O)[C@H](CCC(=O)O)NC(=O)[C@H](CCC(=O)O)NC(=O)[C@H](CC(C)C)NC(=O)[C@H](Cc1ccc(O)cc1)NC(=O)[C@H](CCCNC(=N)N)NC(=O)[C@H](CO)NC(=O)[C@@H](NC(=O)[C@H](CC(=O)O)NC(=O)[C@H](CO)NC(=O)[C@@H](NC(=O)[C@H](Cc1ccccc1)NC(=O)[C@@H](NC(=O)CNC(=O)[C@H](Cc1c[nH]cn1)NC(=O)C(C)(C)NC(=O)CCc1c[nH]cn1)[C@@H](C)O)[C@@H](C)O)C(C)C)C(=O)N[C@@H](C)C(=O)N[C@@H](Cc1c[nH]c2ccccc12)C(=O)N[C@@H](CC(C)C)C(=O)N[C@@H](CC(C)C)C(=O)N[C@@H](CCCCNC(=O)CNC(=O)[C@H](CO)NC(=O)[C@H](CCC(=O)O)NC(=O)CNC(=O)[C@H](CO)NC(=O)CC[C@H](NC(=O)CC[C@H](NC(=O)CCCCCCCCCCCCCCCCC(=O)O)C(=O)O)C(=O)O)C(=O)N[C@H](C(N)=O)[C@@H](C)O [Example 7, N^ε34-[2-[[(2S)-2-[[(2S)-4-carboxy-2-[[2-[[(2S)-2-[[(4S)-4-carboxy-4-[[(4S)-4-carboxy-4-(17-carboxyheptadecanoylamino)butanoyl]amino]butanoyl]amino]-3-hydroxypropanoyl]amino]acetyl]amino]butanoyl]amino]-3-hydroxypropanoyl]amino]acetyl]-[Imp7,Aib8,His9,Arg18,Glu22,Arg26,Leu33,Thr35]-GLP-1-(7-35)-peptide amide] (I: Desaminohistidyl-[Aib]HGTFTSDVSRYLEEQAAREFIAWLLKT-NH2 / II: {C18 diacid-γGlu-γGlu}-SGESG; amide I:27-II:C) | 0.5
CC[C@H](C)[C@H](NC(=O)[C@H](Cc1ccccc1)NC(=O)[C@H](CCC(=O)O)NC(=O)[C@H](CCCNC(=N)N)NC(=O)[C@H](C)NC(=O)[C@H](C)NC(=O)[C@H](CCC(N)=O)NC(=O)[C@H](CCC(=O)O)NC(=O)[C@H](CCC(=O)O)NC(=O)[C@H](CC(C)C)NC(=O)[C@H](Cc1ccc(O)cc1)NC(=O)[C@H](CCCCN)NC(=O)[C@H](CO)NC(=O)[C@@H](NC(=O)[C@H](CC(=O)O)NC(=O)[C@H](CO)NC(=O)[C@@H](NC(=O)[C@H](Cc1ccccc1)NC(=O)[C@@H](NC(=O)CNC(=O)[C@H](Cc1c[nH]cn1)NC(=O)C(C)(C)NC(=O)CCc1c[nH]cn1)[C@@H](C)O)[C@@H](C)O)C(C)C)C(=O)N[C@@H](C)C(=O)N[C@@H](Cc1c[nH]c2ccccc12)C(=O)N[C@@H](CC(C)C)C(=O)N[C@@H](CC(C)C)C(=O)N[C@@H](CCCCNC(=O)CNC(=O)[C@H](CO)NC(=O)[C@H](CCC(=O)O)NC(=O)CNC(=O)[C@H](CO)NC(=O)CC[C@H](NC(=O)CC[C@H](NC(=O)CCCCCCCCCCCCCCCCC(=O)O)C(=O)O)C(=O)O)C(=O)N[C@H](C(N)=O)[C@@H](C)O [Example 3, N^ε34-[2-[[(2S)-2-[[(2S)-4-carboxy-2-[[2-[[(2S)-2-[[(4S)-4-carboxy-4-[[(4S)-4-carboxy-4-(17-carboxyheptadecanoylamino)butanoyl]amino]butanoyl]amino]-3-hydroxypropanoyl]amino]acetyl]amino]butanoyl]amino]-3-hydroxypropanoyl]amino]acetyl]-[Imp7,Aib8,His9,Lys18,Glu22,Arg26,Leu33,Thr35]-GLP-1-(7-35)-peptide amide] (I: Desaminohistidyl-[Aib]HGTFTSDVSKYLEEQAAREFIAWLLKT-NH2 / II: {C18 diacid-γGlu-γGlu}-SGESG; amide I:27-II:C) | 0.4
CC[C@H](C)[C@H](NC(=O)[C@H](Cc1ccccc1)NC(=O)[C@H](CCC(=O)O)NC(=O)[C@H](CCCNC(=N)N)NC(=O)[C@H](C)NC(=O)[C@H](C)NC(=O)[C@H](CCCNC(=N)N)NC(=O)CNC(=O)[C@H](CCC(=O)O)NC(=O)[C@H](CC(C)C)NC(=O)[C@H](Cc1ccc(O)cc1)NC(=O)[C@H](CCCCN)NC(=O)[C@H](CO)NC(=O)[C@@H](NC(=O)[C@H](CC(=O)O)NC(=O)[C@H](CO)NC(=O)[C@@H](NC(=O)[C@H](Cc1ccccc1)NC(=O)[C@@H](NC(=O)CNC(=O)[C@H](Cc1c[nH]cn1)NC(=O)C1(NC(=O)CCc2c[nH]cn2)CCC1)[C@@H](C)O)[C@@H](C)O)C(C)C)C(=O)N[C@@H](C)C(=O)N[C@@H](Cc1c[nH]c2ccccc12)C(=O)N[C@@H](CC(C)C)C(=O)N[C@@H](CC(C)C)C(=O)N[C@@H](CCCCNC(=O)CNC(=O)[C@H](CO)NC(=O)[C@H](CCC(=O)O)NC(=O)CNC(=O)[C@H](CO)NC(=O)CC[C@H](NC(=O)CC[C@H](NC(=O)CCCCCCCCCCCCCCCCC(=O)O)C(=O)O)C(=O)O)C(=O)N[C@H](C(N)=O)[C@@H](C)O [Example 20, N^ε34-[2-[[(2S)-2-[[(2S)-4-carboxy-2-[[2-[[(2S)-2-[[(4S)-4-carboxy-4-[[(4S)-4-carboxy-4-(17-carboxyheptadecanoylamino)butanoyl]amino]butanoyl]amino]-3-hydroxypropanoyl]amino]acetyl]amino]butanoyl]amino]-3-hydroxypropanoyl]amino]acetyl]-[Imp7,Acb8,His9,Lys18,Arg23,Arg26,Leu33,Thr35]-GLP-1-(7-35)-peptide amide] (I: Desaminohistidyl-[Ac4c]HGTFTSDVSKYLEGRAAREFIAWLLKT-NH2 / II: {C18 diacid-γGlu-γGlu}-SGESG; amide I:27-II:C) | 0.3

The next lines start with the values.

IC50 [nM] | Structure (SMILES)
0.7 | CC[C@H](C)[C@H](NC(=O)[C@H](Cc1ccccc1)NC(=O)[C@H](CCC(=O)O)NC(=O)[C@H](CCCNC(=N)N)NC(=O)[C@H](C)NC(=O)[C@H](C)NC(=O)[C@H](CCC(N)=O)NC(=O)[C@H](CCC(=O)O)NC(=O)[C@H](CCC(=O)O)NC(=O)[C@H](CC(C)C)NC(=O)[C@H](Cc1ccc(O)cc1)NC(=O)[C@H](CCCCN)NC(=O)[C@H](CO)NC(=O)[C@@H](NC(=O)[C@H](CC(=O)O)NC(=O)[C@H](CO)NC(=O)[C@@H](NC(=O)[C@H](Cc1ccccc1)NC(=O)[C@@H](NC(=O)CNC(=O)[C@H](Cc1c[nH]cn1)NC(=O)C(C)(C)NC(=O)CCc1c[nH]cn1)[C@@H](C)O)[C@@H](C)O)C(C)C)C(=O)N[C@@H](C)C(=O)N[C@@H](Cc1c[nH]c2ccccc12)C(=O)N[C@@H](CC(C)C)C(=O)N[C@@H](CC(C)C)C(=O)N[C@@H](CCCCNC(=O)COCCOCCNC(=O)COCCOCCNC(=O)CC[C@H](NC(=O)CCCCCCCCCCCCCCCCC(=O)O)C(=O)O)C(=O)N[C@H](C(N)=O)[C@@H](C)O [Example 12, N^ε34-[2-[2-[2-[[2-[2-[2-[[(4S)-4-carboxy-4-(17-carboxyheptadecanoylamino)butanoyl]amino]ethoxy]ethoxy]acetyl]amino]ethoxy]ethoxy]acetyl]-[Imp7,Aib8,His9,Lys18,Glu22,Arg26,Leu33,Thr35]-GLP-1-(7-35)-peptide amide] (Desaminohistidyl-[Aib]HGTFTSDVSKYLEEQAAREFIAWLLK([AEEA-AEEA-γGlu-C18 diacid])T-NH2)
0.3 | CC[C@H](C)[C@H](NC(=O)[C@H](Cc1ccccc1)NC(=O)[C@H](CCC(=O)O)NC(=O)[C@H](CCCNC(=N)N)NC(=O)[C@H](C)NC(=O)[C@H](C)NC(=O)[C@H](CCCNC(=N)N)NC(=O)[C@H](C)NC(=O)[C@H](CCC(=O)O)NC(=O)[C@H](CC(C)C)NC(=O)[C@H](Cc1ccc(O)cc1)NC(=O)[C@H](CCCCN)NC(=O)[C@H](CO)NC(=O)[C@@H](NC(=O)[C@H](CC(=O)O)NC(=O)[C@H](CO)NC(=O)[C@@H](NC(=O)[C@H](Cc1ccccc1)NC(=O)[C@@H](NC(=O)CNC(=O)[C@H](Cc1c[nH]cn1)NC(=O)C(C)(C)NC(=O)CCc1c[nH]cn1)[C@@H](C)O)[C@@H](C)O)C(C)C)C(=O)N[C@@H](C)C(=O)N[C@@H](Cc1c[nH]c2ccccc12)C(=O)N[C@@H](CC(C)C)C(=O)N[C@@H](CC(C)C)C(=O)N[C@@H](CCCCNC(=O)CC[C@H](NC(=O)COCCOCCNC(=O)COCCOCCNC(=O)CC[C@H](NC(=O)CC[C@H](NC(=O)CCCCCCCCCCCCCCCCC(=O)O)C(=O)O)C(=O)O)C(=O)O)C(=O)NCC(=O)NCC(=O)NCC(=O)O [Example 31, N^ε34-[(4S)-4-carboxy-4-[[2-[2-[2-[[2-[2-[2-[[(4S)-4-carboxy-4-[[(4S)-4-carboxy-4-(17-carboxyheptadecanoylamino)butanoyl]amino]butanoyl]amino]ethoxy]ethoxy]acetyl]amino]ethoxy]ethoxy]acetyl]amino]butanoyl]-[Imp7,Aib8,His9,Lys18,Ala22,Arg23,Arg26,Leu33,Gly36]-GLP-1-(7-37)-peptide] (Desaminohistidyl-[Aib]HGTFTSDVSKYLEARAAREFIAWLLK([γGlu-AEEA-AEEA-γGlu-γGlu-C18 diacid])GGG-OH)
